# Values quoted from earlier work in patent publication US10645923B2, “Insect bait” (priority 2010, dated 2020).
# Assays:
# [1] = test system: V. Germanica; conditions: hydramethylnon 2%, after 72 hours
# [2] = test system: wasps; conditions: fipronil versus sulfluramid; faster acting
# [3] = test system: Vespula spp.; conditions: treated areas
# [4] = test system: wasps; conditions: beef baited with fipronil, North West Patagonia (Argentina)
SMILES,reduction of wasp populations [1],concentration factor lower than sulfluramid at equal toxicity [2],reduction of colony activity [3],reduction of wasp densities [4]
CC1(C)CNC(=NN=C(/C=C/c2ccc(C(F)(F)F)cc2)/C=C/c2ccc(C(F)(F)F)cc2)NC1 [hydramethylnon],54%,–,–,–
N#Cc1nn(-c2c(Cl)cc(C(F)(F)F)cc2Cl)c(N)c1[S+]([O-])C(F)(F)F (stereo not shown) [Fipronil],–,1000 times,99.7%,80-100%
